Measured values from patent US10317418B2, “Use of ghrelin or functional ghrelin receptor agonists to prevent and treat stress-sensitive psychiatric illness” (Massachusetts Institute of Technology, priority 2015, dated 2019).
Entries after “also recorded” stand apart in the source; their conditions may differ. Counter-ions that a name gives are not always drawn.

Tests used:
Long Evans rats [1] = assay: auditory Pavlovian fear conditioning and extinction testing, unstressed rats; assay type: in vivo, rat
Experimental: All experiments used adult, male Long Evans rats (300-350 g, Charles River, Raleigh, N.C. or 250-275 g, Taconic, Germantown, N.Y.), individually housed (68-72° F.; 12-h light/dark cycle, 0700 h lights on). Control animals were housed in separate cubicles from stressed animals. Water and food was given ad libitum. All procedures were approved by the Institutional Animal Care and Use Committee of the Massachusetts Institute of Technology and the Animal Care and Use Review Office of the US Army Medical Research and Materiel Command and in accordance with the US National Institutes of Health (NIH) Guide for the Care and Use of Laboratory Animals.
(§1) Some rats received systemic or intra-BLA delivery of ibutamoren mesylate (IBU). For systemic drug delivery, rats were injected with 1 ml kg^−1 intraperitoneal injection (i.p.) of either vehicle or drug. […] A concentration of 0.5 mg ml^−1, diluted in saline, was used. For experiments using intra-BLA drug delivery, ibutamoren mesylate was solubilized in artificial cerebrospinal fluid (pH=7.4) to a concentration of 0.5 μg μl^−1.
Some rats received bilateral implants of stainless steel cannulae aimed at the BLA. Rats were anesthetized with a cocktail of 10 mg kg^−1 acepromazine, 100 mg kg^−1 xylazine, and 100 mg kg^−1 ketamine (1 ml kg^−1; i.p.) and placed in a dual arm stereotaxic frame (Kopf Instruments; Tujunga, Calif.). The rats were then implanted with 23 gauge guide cannulae 1 mm above LA using the following coordinates, relative to bregma and brain surface: A/P −2.0, M/L+/−5.3, D/V −5.4. Three jeweler screws were also implanted in the skull, and dental acrylic was used to secure the implant. Dummy cannulae extending 1 mm past the tip of the guide cannulae were placed into the guide cannula after surgery and changed every other day. Rats received 0.03 mg kg^−1 of Buprenex (1 ml kg^−1; subcutaneous injection (s.c.)) for post-operative pain management. All rats recovered for a minimum of 5 days.
A subset of rats were subjected to auditory Pavlovian fear conditioning and extinction testing. All rats were transported in their home cages from the vivarium to a holding room in which no behavioral testing was conducted. This transport occurred at least one hour prior to the onset of any behavioral testing.
For catheterized rats, each rat was placed in a fear conditioning box (MedAssociates; St. Albans, Vt.) scented with Pine-Sol (1%) for 250 sec total. The rats had 3 minutes to explore the novel environment before tone (10 seconds, 85 dB)-shock (2 seconds, 0.35 mA; coterminating with the tone) pairings [20 second intertrial intervals (ITIs)] were administered. Long-term context and tone fear memory was assessed the following day. For context extinction, the rats were returned to the fear conditioning context for a total of 10 minutes. Four hours later, tone extinction was administered by placing the rats in the fear conditioning boxes with an altered context. White Plexiglas inserts were used to obscure the back and side walls and cover the grid floor. Room and box lights were turned off, a red light provided illumination (15 W), and acetic acid (1%) was used to scent the boxes. Two minutes were allowed for exploration before a continuous tone (8 minutes, 87 dB) was presented. For rats with BLA cannula implants, all conditioning and testing was as described, except context and tone extinction were separated by 24 hours.
(§2) On the fear conditioning day, rats were exposed to four tone-shock pairings with a 60 second ITI (460 seconds total time). For context extinction, rats were returned to the conditioning context for 12 minutes total. For tone extinction, rats were exposed to twelve tones (10 seconds, 85 dB) for 960 seconds total. Conditioning, context and tone extinction sessions were separated by 24 hours.
Infrared cameras (frame rate: 30 Hz) and VideoFreeze software (MedAssociates; St Albans, Vt.) were used to record behavior during all training and testing sessions. […]

Long Evans rats [2] = assay: auditory fear conditioning after chronic immobilization stress or handling; assay type: in vivo, rat; settings: FIG. 4F
Experimental: as §1, §2
Infrared cameras (frame rate: 30 Hz) and VideoFreeze software (MedAssociates; St Albans, Vt.) were used to record behavior during all training and testing sessions. Motor activity was measured using the “motion index”, a number generated by the VideoFreeze software, which corresponds roughly to the change in grayscale values across the image pixels; a higher motion index indicates greater movement. Freezing was measured by computing the number of observations below a threshold motion index and converting this number to a percentage of all observations for the period of interest. The threshold defined the value of the motion index below which only motor activity related to breathing was observed. […]
To determine whether the decrease in ghrelin binding sites in the BLA of chronically stressed rats exerts a functional impact, rats received either chronic immobilization stress or handling for two weeks followed by auditory fear conditioning (FIG. 4E). IBU, at the dose shown to reduce fear memory strength in unstressed rats (FIGS. 3A-D), or VEH was injected immediately after conditioning and long-term auditory fear memory was assessed two days later. […]

Long Evans rats [3] = assay: food consumption assay and body weight after IBU; assay type: in vivo, rat
Experimental: as §1
For some rats, food consumption was monitored. After fear conditioning as described above, each rat was returned to its home cage in a holding room. Each rat had 200 g of chow placed in the food hopper. Food was quickly weighed and returned 30 minutes, 1 hour, 2 hours, and 3 hours after fear conditioning ended. Three days after fear recall testing (five days after fear conditioning), food consumption was measured during the same time points within the day, but while the rats were undisturbed in their home cages in the vivarium.
To assess fear memory strength, conditional freezing was expressed as the percentage of time spent freezing, a probability estimate amenable to analysis with parametric statistics. These estimates of freezing, as well as hormone levels and data related to food consumption and body weight, were analyzed using ANOVA. Post hoc Fisher's PLSD tests were performed after a significant omnibus F-ratio.

[4] = in vivo; cited from earlier work
[5] = intra-BLA infusion (0.5 μg/μl) prior to fear conditioning, FIG. 3B
[6] = systemic (i.p., 0.5 mg/ml) prior to fear conditioning, vs vehicle, FIG. 3A
[7] = systemic, 0.5 mg/mL, following fear conditioning, FIG. 7A

With `CC(C)(N)C(=O)N[C@H](COCc1ccccc1)C(=O)N1CCC2(CC1)CN(S(C)(=O)=O)c1ccccc12` [IBU, ibutamoren mesylate] as the molecule, how does the fear acquisition (Long Evans rats [1]; [5]) read?
Its fear acquisition is “without any effect; also recorded: without affecting”.

What about the “long-term auditory fear memory” value (Long Evans rats [1]; [5]) of the same molecule?
Its value is “strongly inhibited; also recorded: significantly impaired”.

And the long-term contextual memory (Long Evans rats [1]; [5])?
The long-term contextual memory was “strongly inhibited; also recorded: significantly impaired”.

What about the fear acquisition (Long Evans rats [1]; [6]) of the same molecule?
Its fear acquisition is “without impacting; also recorded: without affecting”.

And the long-term contextual memory (Long Evans rats [1]; [6])?
The long-term contextual memory was “without impacting; also recorded: without affecting”.

And the “long-term auditory fear memory” value (Long Evans rats [1]; systemic (i.p., 1 ml/kg of 0.5 mg/ml) 30 minutes prior to fear conditioning, vs vehicle, FIG. 3A)?
Its value is “significantly lower levels; also recorded: significantly impaired”.

And the fear acquisition (Long Evans rats [1]; [7])?
The fear acquisition was “without any effect; also recorded: without affecting”.

And the “long-term auditory fear memory” value (Long Evans rats [1]; [7])?
The value was “strongly inhibited; also recorded: significantly impaired”.

What about the “long-term contextual fear memory” value (Long Evans rats [1]; [7]) of the same molecule?
The value was “strongly inhibited; also recorded: significantly impaired”.

What about the “long-term auditory fear memory (conditional freezing)” value (Long Evans rats [2]; rats exposed to chronic immobilization stress (14 days), systemic IBU) of the same molecule?
The value was “no effect and not”.

And the “freezing during fear conditioning (group differences)” value (Long Evans rats [2]; stressed and unstressed rats, IBU or VEH)?
Its value is “No group differences”.

What about the “long-term auditory fear memory” value (Long Evans rats [2]; unstressed (handled) rats, systemic IBU) of the same molecule?
The value was “reduced; also recorded: significantly impaired”.

And the “body weight measured 24 hours after injection” value (Long Evans rats [3]; intra-BLA infusion, FIG. 3D)?
Its value is “does not change”.

And the body weight (Long Evans rats [3]; systemic, 0.5 mg/mL, IBU vs vehicle group, FIG. 3C right panel)?
Its body weight is “did not differ”.

And the “food consumption shortly following injection” value (Long Evans rats [3]; systemic, 0.5 mg/mL, relative to body weight, FIG. 3C left panel)?
Its value is “does not impact”.

What about the “food consumption cumulatively, over the 24 hours following injection” value (Long Evans rats [3]; systemic, 0.5 mg/mL, relative to body weight, FIG. 3C middle panel) of the same molecule?
The value was “does not impact”.

And the “food consumption shortly following injection” value (Long Evans rats [3]; systemic, 10 mg/mL (twenty times the dose), FIG. 7B left panel)?
The value was “does not impact”.

What about the “food consumption cumulatively, over the 24 h following injection” value (Long Evans rats [3]; systemic, 10 mg/mL (twenty times the dose), FIG. 7B middle panel) of the same molecule?
Its value is “does not impact”.

What about the “crossing of the blood-brain barrier” value [4] of the same molecule?
The value was “readily crosses”.

What about the half-life [4] of the same molecule?
Its half-life is greater than 6 h.
